The record followed here is patent publication US20170260226A1, “3-NITROGEN OR SULPHUR SUBSTITUTED OESTRA-1,3,5(10),16-TETRAENE AKR1C3 INHIBITORS” (BAYER PHARMA AKTIENGESELLSCHAFT, priority 2014, published 2017).

Test [1] deals with T1, AKR1C3 (Homo sapiens, UniProt P42330).
T1 sequence (P42330 1-323): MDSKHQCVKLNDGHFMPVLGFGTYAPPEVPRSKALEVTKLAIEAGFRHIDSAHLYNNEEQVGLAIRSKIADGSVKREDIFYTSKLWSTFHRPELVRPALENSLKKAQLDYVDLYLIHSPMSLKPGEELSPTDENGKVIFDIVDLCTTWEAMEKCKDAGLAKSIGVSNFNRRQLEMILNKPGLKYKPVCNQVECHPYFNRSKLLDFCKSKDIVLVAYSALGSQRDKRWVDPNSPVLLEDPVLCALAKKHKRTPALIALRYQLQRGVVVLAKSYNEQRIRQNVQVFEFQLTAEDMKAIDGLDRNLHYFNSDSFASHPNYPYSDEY
As to the kind of experiment: AKR1C3 inhibition in a cell-based system (HEK293 cells transfected with AKR1C3 expression plasmid, coumberon substrate). Further details: expressed in transfected cells; host or cells: HEK293 cells (ATCC). As to conditions: mean values; HEK293 cells transfected with AKR1C3, coumberon 6×10^−6M, 3 h; read-out: Cellular AKR1C3 inhibition IC50. The procedure:
The inhibition of AKR1C3 by the substances described in this invention was measured in a cell-based assay using coumberon as the substrate for AKR1C3 (Halim, M., Yee, D., J., and Sames, D., J. (2008). Am Chem Soc, 130, 14123-14128 and Yee, D., J., Balsanek, V., Bauman, D., R., Penning, T., M., and Sames, D. (2006), Proc Natl Acad Sci USA 103, 13304-13309) (cf. Example 48).
The cell system used was HEK293 cells (ATCC, USA) (DMEM/F12, 10% FCS, 2 mM L-Glutamine, PSG). The cells were transfected with an AKR1C3 expression plasmid (pCMV6-AC-AKR1C3, GenBank Accession No. NM 003739.4), harvested after 24 hours and subsequently frozen. For assays, the frozen cells were thawed in assay medium (DMEM/F12 w/o phenolred, 0.005% Tween, 10% FCS, 2 mM L-Glutamine, PSG). Cells were seeded at 2500 cells/well into 384-well low volume or 1536-well plates (Greiner Bio-One, Frickenhausen, Germany) that contained 40-50 nl of a 100 fold concentrated compound solution in DMSO. After incubation at room temperature for 15 minutes, coumberon in PBS was added to a final concentration of 6×10^−6M. Following a 3 h incubation at room temperature, the reaction was stopped by lysing the cells with 0.4% Triton X-100. Coumberol fluorescence intensity was measured at 520 nm (excitation 380 nm) with a suitable measuring instrument (Pherastar, BMG). […] The data were normalized (transfected cells+coumberon=0% inhibition; no cells+coumberone=100% inhibition). Substances were usually tested at 11 different concentrations on the same microtiter plate in a range between 96.8 pM to 20 μM (20 μM, 5.9 μM, 1.7 μM, 0.5 μM, 0.15 μM, 44 nM, 12.9 nM, 3.8 nM, 1.1 nM, 0.3 nM and 96.8 pM). The dilutions were carried out on a 100 fold concentrated solution by serial dilution in duplicates. From the obtained data IC50 values were calculated by a 4-parameter fit.

In test [2] the target is T1, AKR1C3. The test can be described thus: AKR1C3 enzyme inhibition assay (coumberone to coumberol fluorescence). Format: biochemical. Further details: GST (cleaved yes); made in house; host or cells: E. coli. As to conditions: mean values; 10 μM NADPH, 0.3 μM coumberone, 3 h at room temperature. The method, then:
The AKR1C3-inhibitory action of the substances of this invention was measured in the AKR1C3 assay described in the paragraphs which follow.
Essentially, the enzyme activity is measured by quantifying the coumberol formed from coumberone (Halim, M., Yee, D., J., and Sames, D., J. A., M. (2008). Chem Soc 130, 14123-14128 and Yee, D., J., Balsanek, V., Bauman, D., R., Penning, T., M., and Sames, D. (2006). Proc Natl Acad Sci USA, 103, 13304-13309). In this assay, the increase in the highly fluorescent coumberol can be determined by NADPH (nicotinamide adenine dinucleotide phosphate)-dependent reduction of the nonfluorescent coumberone by AKR1C3.
The enzyme used was recombinant human AKR1C3 (aldo-keto reductase family 1 member C3) (GenBank Accession No. NM_003739). This was expressed as the GST (glutathione S-transferase) fusion protein in E. coli and purified by means of glutathione-Sepharose affinity chromatography. The GST was removed by thrombin digestion with subsequent size exclusion chromatography (Dufort, I., Rheault, P., Huang, X., F., Soucy, P., and Luu-The, V. (1999). Endocrinology,140, 568-574).
For the assay, 40-50 nl of a 100-fold concentrated solution of the test substance in DMSO were pipetted into a black low-volume 384-well microtitre plate (Greiner Bio-One, Frickenhausen, Germany), 2-2.5 μl of a solution of AKR1C3 in assay buffer [50 mM potassium phosphate buffer pH 7, 1 mM DTT, 0.0022% (w/v) Pluronic F-127, 0.01% BSA (w/v) and protease inhibitor cocktail (complete, EDTA-free Protease Inhibitor Cocktail from Roche)] were added and the mixture was incubated for 20 min, in order to enable preliminary binding of the substances to the enzyme prior to the enzyme reaction. Then the enzyme reaction was started by adding 2-2.5 μl of a solution of NADPH and coumberone in assay buffer (final assay concentration was 10 μM NADPH and 0.3 μM coumberone) and the resulting mixture was incubated at room temperature for 3 h. Typical concentrations were depending on the linear range of the enzyme reaction during the reaction time about 1 nM. The reaction was stopped by adding 2 μl of a stop solution consisting of the AKR1C3 inhibitor EM-1404 to a final concentration of 1 μM. Subsequently, the fluorescence of coumberol was measured at 520 nm (excitation at 380 nm) with a suitable measuring instrument (Pherastar, BMG). […] The data were normalized (enzyme+coumberon substrate in assay buffer=0% inhibition; coumberone substrate only in assay buffer=100% inhibition). Substances were usually tested at 11 different concentrations on the same microtiter plate in a range between 96.8 pM to 20 μM (20 μM, 5.9 μM, 1.7 μM, 0.5 μM, 0.15 μM, 44 nM, 12.9 nM, 3.8 nM, 1.1 nM, 0.3 nM and 96.8 pM). The dilutions were carried out on a 100 fold concentrated solution by serial dilution in duplicates. From the obtained data IC50 values were calculated by a 4-parameter fit.

What is called pIC50 is the negative decadic logarithm of the IC50, by convention in mol/L.

pIC50: −log10 of the molar value.

Turning to `CN(CCC(=O)O)S(=O)(=O)c1ccc2c(c1)CC[C@@H]1[C@@H]2CC[C@]2(C)C(c3cncc(F)c3)=CC[C@@H]12` [Example 02, N-{[17-(5-fluoropyridin-3-yl)estra-1(10),2,4,16-tetraen-3-yl]sulfonyl}-N-methyl-beta-alanine], the negative-log IC50 (pIC50) is 6.42 in test [1] and 8.46 in test [2].

On to `CN(CCCO)S(=O)(=O)c1ccc2c(c1)CC[C@@H]1[C@@H]2CC[C@]2(C)C(c3cncc(F)c3)=CC[C@@H]12` [Example 03, 17-(5-fluoropyridin-3-yl)-N-(3-hydroxypropyl)-N-methylestra-1(10),2,4,16-tetraene-3-sulfonamide], for which the pIC50 was 7.30 in test [1] and 8.62 in test [2].

As to `CN(CCC(=O)O)S(=O)(=O)c1ccc2c(c1)CC[C@@H]1[C@@H]2CC[C@]2(C)C(c3cncnc3)=CC[C@@H]12` [Example 05, N-methyl-N-{[17-(pyrimidin-5-yl)estra-1(10),2,4,16-tetraen-3-yl]sulfonyl}-beta-alanine], the pIC50 in test [1] was 5.57; in test [2], 7.04.

As for `Cc1cc(C2=CC[C@H]3[C@@H]4CCc5cc(S(=O)(=O)N(C)CCC(=O)O)ccc5[C@H]4CC[C@]23C)cnn1` [Example 07, N-methyl-N-{[17-(6-methylpyridazin-4-yl)estra-1(10),2,4,16-tetraen-3-yl]sulfonyl}-beta-alanine], the results for the pIC50 in test [1] and in test [2] were 6.10 and 9.30, respectively.

With `C[C@]12CC[C@@H]3c4ccc(S(C)(=O)=O)cc4CC[C@H]3[C@@H]1CC=C2c1cncc(F)c1` [Example 08, 17-(5-fluoropyridin-3-yl)-3-(methylsulfonyl)estra-1(10),2,4,16-tetraene], the results for the negative logarithm of the IC50 (pIC50) in test [1] and in test [2] were 7.10 and 8.39, respectively.

Consider `COC(=O)CCCS(=O)(=O)c1ccc2c(c1)CC[C@@H]1[C@@H]2CC[C@]2(C)C(c3cncc(F)c3)=CC[C@@H]12` [Example 09, methyl 4-{[17-(5-fluoropyridin-3-yl)estra-1(10),2,4,16-tetraen-3-yl]sulfonyl}butanoate], for which the pIC50 was 7.30 in test [1] and 8.11 in test [2].

In the case of `C[C@]12CC[C@@H]3c4ccc(S(=O)(=O)CCCC(=O)O)cc4CC[C@H]3[C@@H]1CC=C2c1cncc(F)c1` [Example 10, 4-{[17-(5-fluoropyridin-3-yl)estra-1(10),2,4,16-tetraen-3-yl]sulfonyl}butanoic acid], the pIC50 in test [1] is 6.31; in test [2], 8.54.

With `C[C@]12CC[C@@H]3c4ccc(S(=O)(=O)CCCC(=O)O)cc4CC[C@H]3[C@@H]1CC=C2c1cccnc1` [Example 12, 4-{[17-(pyridin-3-yl)estra-1(10),2,4,16-tetraen-3-yl]sulfonyl}butanoic acid], the figures for the pIC50 in test [1] and in test [2] were 6.15 and 7.92, respectively.

Turning to `C[C@]12CC[C@@H]3c4ccc(S(=O)(=O)CCCC(=O)O)cc4CC[C@H]3[C@@H]1CC=C2c1cncc(C(F)(F)F)c1` [Example 14, 4-({17-[5-(trifluoromethyl)pyridin-3-yl]estra-1(10),2,4,16-tetraen-3-yl}sulfonyl)butanoic acid], the pIC50 is 6.31 in test [1] and 7.84 in test [2].

As for `Cc1ccc(C2=CC[C@H]3[C@@H]4CCc5cc(S(=O)(=O)CCCC(=O)O)ccc5[C@H]4CC[C@]23C)cn1` [Example 15, 4-{[17-(6-methylpyridin-3-yl)estra-1,3,5(10),16-tetraen-3-yl]sulfonyl}butanoic acid], the pIC50 in test [1] was 5.50; in test [2] it was 7.14.

Take `COc1cncc(C2=CC[C@H]3[C@@H]4CCc5cc(S(=O)(=O)CCCC(=O)O)ccc5[C@H]4CC[C@]23C)c1` [Example 16, 4-{[17-(5-methoxypyridin-3-yl)estra-1,3,5(10),16-tetraen-3-yl]sulfonyl}butanoic acid]: the negative-log IC50 (pIC50) is 6.27 in test [1] and 8.01 in test [2].

For the compound `Cc1cncc(C2=CC[C@H]3[C@@H]4CCc5cc(S(=O)(=O)CCCC(=O)O)ccc5[C@H]4CC[C@]23C)c1` [Example 17, 4-{[17-(5-methylpyridin-3-yl)estra-1,3,5(10),16-tetraen-3-yl]sulfonyl}butanoic acid], the pIC50 in test [1] is 6.77; in test [2], 8.80.

Consider `Cc1ccncc1C1=CC[C@H]2[C@@H]3CCc4cc(S(=O)(=O)CCCC(=O)O)ccc4[C@H]3CC[C@]12C` [Example 18, 4-{[17-(4-methylpyridin-3-yl)estra-1,3,5(10),16-tetraen-3-yl]sulfonyl}butanoic acid], for which the values for the pIC50 in test [1] and in test [2] were 5.75 and 7.47, respectively.

For `C[C@]12CC[C@@H]3c4ccc(S(=O)(=O)CCCC(=O)O)cc4CC[C@H]3[C@@H]1CC=C2c1cncc(Cl)c1` [Example 19, 4-{[17-(5-chloropyridin-3-yl)estra-1,3,5(10),16-tetraen-3-yl]sulfonyl}butanoic acid], the pIC50 was 6.82 in test [1] and 8.77 in test [2].

Turning to `C[C@]12CC[C@@H]3c4ccc(S(=O)(=O)CCCC(N)=O)cc4CC[C@H]3[C@@H]1CC=C2c1cncc(F)c1` [Example 20, 4-{[17-(5-fluoropyridin-3-yl)estra-1(10),2,4,16-tetraen-3-yl]sulfonyl}butanamide], the pIC50 is 7.52 in test [1] and 8.49 in test [2].

For `C[C@]12CC[C@@H]3c4ccc(S(=O)(=O)CCCCO)cc4CC[C@H]3[C@@H]1CC=C2c1cncc(F)c1` [Example 21, 4-{[17-(5-fluoropyridin-3-yl)estra-1(10),2,4,16-tetraen-3-yl]sulfonyl}butan-1-ol], the pIC50 in test [1] is 7.40; in test [2], 8.28.
